How the values were obtained:
Crenolanib + Luminespib = compound: CC1(COc2ccc3c(c2)ncn3-c2ccc3cccc(N4CCC(N)CC4)c3n2)COC1 [Crenolanib] + CCNC(=O)c1noc(-c2cc(C(C)C)c(O)cc2O)c1-c1ccc(CN2CCOCC2)cc1 [Luminespib] (partner 0.01 µM); experiment: relative viability (nuclei count vs DMSO), 5 days (fraction); higher = more cells survive
Summary of the method: (§1)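 After 5 days of treatment, lung cancer cells in 1536-well plates were fixed and stained in a single step (final 0.05% Triton X-100, 1% formaldehyde, 1 ug/ml Hoechst) and their nuclei counted on 4× images. Treatment had been applied by pin tool the day after seeding as one drug alone or as a fixed anchor-drug dose with five library-drug doses (not always all listed) in √10 steps. Relative viability is the nuclei count of treated wells divided by that of vehicle wells, and values are medians of duplicate plates.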

Crenolanib + Dasatinib = compound: CC1(COc2ccc3c(c2)ncn3-c2ccc3cccc(N4CCC(N)CC4)c3n2)COC1 [Crenolanib] + Cc1nc(Nc2ncc(C(=O)Nc3c(C)cccc3Cl)s2)cc(N2CCN(CCO)CC2)n1 [Dasatinib] (partner 0.075 µM); experiment: as above
Summary of the method: as §1

Cell Line	relative viability (Crenolanib + Luminespib; first compound 0.01 µM)	relative viability (Crenolanib + Luminespib; first compound 0.03162 µM)	relative viability (Crenolanib + Luminespib; first compound 0.1 µM)	relative viability (Crenolanib + Luminespib; first compound 0.3162 µM)	relative viability (Crenolanib + Luminespib; first compound 1 µM)	relative viability (Crenolanib + Dasatinib; first compound 0.01 µM)	relative viability (Crenolanib + Dasatinib; first compound 0.03162 µM)	relative viability (Crenolanib + Dasatinib; first compound 0.1 µM)	relative viability (Crenolanib + Dasatinib; first compound 0.3162 µM)	relative viability (Crenolanib + Dasatinib; first compound 1 µM)
LCLC-97TM1	0.777	0.749	0.792	0.844	0.753	0.877	0.883	0.857	0.949	0.67
LOU-NH91	0.326	0.304	0.33	0.303	0.317	0.598	0.53	0.527	0.559	0.593
NCI-H838	0.353	0.235	0.29	0.301	0.373	0.262	0.294	0.273	0.28	0.219
NCI-H1437	1.18	1.17	1.1	1.21	0.911	0.403	0.369	0.361	0.377	0.42
NCI-H2087	0.184	0.195	0.167	0.191	0.184	0.809	1.03	0.694	1.07	0.818

From the supplement of paper PMC10307832
